Experimental data as given in ChEMBL document CHEMBL5029152, “Discovery of Highly Potent and Selective IRAK1 Degraders to Probe Scaffolding Functions of IRAK1 in ABC DLBCL” (J Med Chem, 2021).
Activity calls are given as the source filed them. No cut-off for these calls is given here.

Key:
[1] = target: T1, Mitogen-activated protein kinase kinase kinase 19 (Homo sapiens) (UniProt Q56UN5); experiment: Inhibition of wild-type human partial length YSK4 (T1019 to H1328 residues) expressed in mammalian expression system at 1 uM by Kinomescan method
T1 sequence (whole entry): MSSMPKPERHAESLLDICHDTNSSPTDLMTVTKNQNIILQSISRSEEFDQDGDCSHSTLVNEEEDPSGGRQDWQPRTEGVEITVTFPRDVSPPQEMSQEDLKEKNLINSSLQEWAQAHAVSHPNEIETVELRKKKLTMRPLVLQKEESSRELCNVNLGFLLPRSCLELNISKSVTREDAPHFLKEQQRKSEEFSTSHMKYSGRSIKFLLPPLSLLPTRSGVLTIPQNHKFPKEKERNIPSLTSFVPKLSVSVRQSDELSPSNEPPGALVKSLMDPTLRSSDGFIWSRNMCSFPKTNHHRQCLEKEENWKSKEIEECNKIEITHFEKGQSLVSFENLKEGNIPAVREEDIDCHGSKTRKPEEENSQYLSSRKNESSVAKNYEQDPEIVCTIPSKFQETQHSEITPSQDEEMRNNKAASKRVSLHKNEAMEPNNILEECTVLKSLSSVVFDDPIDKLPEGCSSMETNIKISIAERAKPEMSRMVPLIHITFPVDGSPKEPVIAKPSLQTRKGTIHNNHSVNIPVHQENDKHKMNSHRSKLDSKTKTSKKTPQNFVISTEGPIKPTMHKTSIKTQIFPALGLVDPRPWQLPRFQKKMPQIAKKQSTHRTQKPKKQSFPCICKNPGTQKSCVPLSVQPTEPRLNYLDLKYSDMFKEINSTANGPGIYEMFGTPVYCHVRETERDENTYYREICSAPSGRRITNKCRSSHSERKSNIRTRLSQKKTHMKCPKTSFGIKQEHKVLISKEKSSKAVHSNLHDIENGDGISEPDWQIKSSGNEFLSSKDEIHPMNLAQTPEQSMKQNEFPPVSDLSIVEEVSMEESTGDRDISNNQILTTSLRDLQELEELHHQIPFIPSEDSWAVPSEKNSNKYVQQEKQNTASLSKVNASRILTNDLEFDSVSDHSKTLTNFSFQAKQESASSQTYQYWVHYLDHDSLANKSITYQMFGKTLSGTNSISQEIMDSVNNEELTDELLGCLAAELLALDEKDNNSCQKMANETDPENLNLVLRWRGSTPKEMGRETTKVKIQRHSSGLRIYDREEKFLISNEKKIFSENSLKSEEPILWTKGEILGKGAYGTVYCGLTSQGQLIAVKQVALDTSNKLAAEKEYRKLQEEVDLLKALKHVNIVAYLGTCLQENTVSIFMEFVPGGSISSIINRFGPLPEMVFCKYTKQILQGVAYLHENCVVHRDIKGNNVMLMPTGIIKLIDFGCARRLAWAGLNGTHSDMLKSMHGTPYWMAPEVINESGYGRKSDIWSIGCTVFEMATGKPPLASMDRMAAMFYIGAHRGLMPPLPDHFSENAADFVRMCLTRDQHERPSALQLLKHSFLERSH

[2] = target: T2, Interleukin-1 receptor-associated kinase 1 (Homo sapiens, UniProt P51617); experiment: Inhibition of IRAK1 in human HBL1 cells assessed as reduction in phosphorylated IKBA level at up to 1 uM measured after 24 hrs by Western blot analysis; assay type: cell-based; settings: dose microM <=1, time 24.0 hrs
Target sequence in this assay (P51617 whole entry, looked up, the tested form may be a part): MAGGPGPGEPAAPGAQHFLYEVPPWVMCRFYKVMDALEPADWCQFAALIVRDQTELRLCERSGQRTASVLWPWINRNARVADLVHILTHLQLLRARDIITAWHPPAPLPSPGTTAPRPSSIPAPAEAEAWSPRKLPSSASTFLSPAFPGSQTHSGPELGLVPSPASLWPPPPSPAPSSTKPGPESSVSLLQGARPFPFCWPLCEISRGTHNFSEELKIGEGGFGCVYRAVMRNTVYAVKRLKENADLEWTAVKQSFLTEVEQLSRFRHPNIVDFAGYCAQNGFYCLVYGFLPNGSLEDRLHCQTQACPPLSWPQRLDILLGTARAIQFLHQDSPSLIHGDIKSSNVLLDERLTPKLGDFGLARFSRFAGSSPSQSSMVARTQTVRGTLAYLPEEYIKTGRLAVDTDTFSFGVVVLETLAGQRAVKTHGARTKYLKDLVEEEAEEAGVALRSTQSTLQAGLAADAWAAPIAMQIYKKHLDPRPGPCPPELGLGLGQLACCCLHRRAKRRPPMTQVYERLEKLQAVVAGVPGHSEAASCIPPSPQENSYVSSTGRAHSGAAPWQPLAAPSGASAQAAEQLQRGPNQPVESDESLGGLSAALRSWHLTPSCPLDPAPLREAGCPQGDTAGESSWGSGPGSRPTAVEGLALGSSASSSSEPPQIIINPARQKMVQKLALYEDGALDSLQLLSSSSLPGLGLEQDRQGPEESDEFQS

[3] = target: BMP-2-inducible protein kinase (Homo sapiens) (UniProt Q9NSY1); experiment: Inhibition of wild-type human partial length BIKE (S34 to N329 residues) expressed in bacterial expression system at 1 uM by Kinomescan method
Sequence of BMP-2-inducible protein kinase (Homo sapiens) (Q9NSY1 whole entry, looked up, the tested form may be a part): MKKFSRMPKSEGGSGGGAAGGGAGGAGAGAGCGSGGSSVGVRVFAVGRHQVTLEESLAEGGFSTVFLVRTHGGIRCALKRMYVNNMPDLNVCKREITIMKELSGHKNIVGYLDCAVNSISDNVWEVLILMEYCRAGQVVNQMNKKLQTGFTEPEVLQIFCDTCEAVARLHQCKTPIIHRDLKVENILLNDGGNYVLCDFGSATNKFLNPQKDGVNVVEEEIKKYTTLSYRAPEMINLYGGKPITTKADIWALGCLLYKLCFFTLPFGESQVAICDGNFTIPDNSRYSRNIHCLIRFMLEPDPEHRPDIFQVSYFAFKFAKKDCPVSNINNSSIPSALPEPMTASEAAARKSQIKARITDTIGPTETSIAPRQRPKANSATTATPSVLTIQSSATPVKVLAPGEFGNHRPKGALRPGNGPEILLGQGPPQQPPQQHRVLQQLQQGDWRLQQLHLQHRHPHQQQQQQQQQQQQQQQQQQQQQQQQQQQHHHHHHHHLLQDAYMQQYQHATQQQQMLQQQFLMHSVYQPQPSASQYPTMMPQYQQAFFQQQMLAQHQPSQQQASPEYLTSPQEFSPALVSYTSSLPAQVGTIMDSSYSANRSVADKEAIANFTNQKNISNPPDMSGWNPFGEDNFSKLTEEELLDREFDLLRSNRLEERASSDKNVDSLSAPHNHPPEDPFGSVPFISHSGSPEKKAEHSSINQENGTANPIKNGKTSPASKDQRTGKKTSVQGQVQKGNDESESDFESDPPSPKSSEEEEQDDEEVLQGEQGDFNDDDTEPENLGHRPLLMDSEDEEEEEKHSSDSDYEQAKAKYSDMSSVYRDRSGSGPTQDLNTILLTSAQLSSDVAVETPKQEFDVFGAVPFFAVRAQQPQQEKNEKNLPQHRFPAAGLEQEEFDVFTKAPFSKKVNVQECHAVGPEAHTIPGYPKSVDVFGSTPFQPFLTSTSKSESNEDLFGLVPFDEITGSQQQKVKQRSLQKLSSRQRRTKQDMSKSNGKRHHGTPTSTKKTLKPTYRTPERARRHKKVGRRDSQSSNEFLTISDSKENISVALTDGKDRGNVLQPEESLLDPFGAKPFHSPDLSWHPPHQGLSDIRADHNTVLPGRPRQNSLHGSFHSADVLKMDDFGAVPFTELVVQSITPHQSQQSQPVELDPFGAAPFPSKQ

[4] = target: T3, von Hippel-Lindau disease tumor suppressor/Interleukin-1 receptor-associated kinase 1 (Homo sapiens, UniProt P51617+P40337); experiment: Protac activity at IRAK1/VHL E3 ligase in HEK293T cells assessed as induction of IRAK1 degradation measured after 24 hrs by Western blot analysis; assay type: cell-based
Target sequence in this assay (P51617 whole entry): as the sequence (P51617 whole entry, looked up, the tested form may be a part) above
Target sequence in this assay (P40337 whole entry): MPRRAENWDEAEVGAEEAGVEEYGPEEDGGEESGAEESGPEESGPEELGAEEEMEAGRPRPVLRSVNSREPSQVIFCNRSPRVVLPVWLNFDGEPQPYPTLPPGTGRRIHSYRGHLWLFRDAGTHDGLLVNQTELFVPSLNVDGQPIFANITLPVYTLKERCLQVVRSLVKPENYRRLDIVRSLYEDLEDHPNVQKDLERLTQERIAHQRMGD

OCI-Ly10 = experiment: Cytotoxicity against human OCILY10 cells assessed as reduction in cell viability measured after 12 days by CellTiter-Glo assay; assay type: functional; settings: time 12 day
[5] = target: T2, Interleukin-1 receptor-associated kinase 1; experiment: Inhibition of IRAK1 in human HBL1 cells assessed as reduction in total STAT3 level at up to 1 uM measured after 24 hrs by Western blot analysis; assay type: cell-based; settings: dose microM <=1, time 24.0 hrs
Target sequence in this assay (P51617 whole entry, looked up, the tested form may be a part): as the sequence (P51617 whole entry, looked up, the tested form may be a part) above

[6] = target: T3, von Hippel-Lindau disease tumor suppressor/Interleukin-1 receptor-associated kinase 1; experiment: Protac activity at IRAK1/VHL E3 ligase in human OCILY10 assessed as induction of IRAK1 degradation measured after 24 hrs by Western blot analysis
Target sequence in this assay (P51617 whole entry): as the sequence (P51617 whole entry, looked up, the tested form may be a part) above
Target sequence in this assay (P40337 whole entry): as the sequence (P40337 whole entry) above

[7] = target: T2, Interleukin-1 receptor-associated kinase 1; experiment: Inhibition of IRAK1 in human HBL1 cells assessed as reduction in phosphorylated STAT3 level at up to 1 uM measured after 24 hrs by Western blot analysis; assay type: cell-based; settings: dose microM <=1, time 24.0 hrs
Target sequence in this assay (P51617 whole entry, looked up, the tested form may be a part): as the sequence (P51617 whole entry, looked up, the tested form may be a part) above

[8] = target: T2, Interleukin-1 receptor-associated kinase 1; experiment: (§1) Inhibition of truncated human N-terminal GST-fusion tagged IRAK1 (194 to 712 residues) expressed in baculovirus expression system using FAM-labelled peptide as substrate preincubated for 10 mins followed by substrate addition and further incubated for 1 hr in presence of ATP at Km concentration by caliper mobility shift assay
Target sequence in this assay (P51617 whole entry, the tested form may be a part): as the sequence (P51617 whole entry, looked up, the tested form may be a part) above

[9] = target: T3, von Hippel-Lindau disease tumor suppressor/Interleukin-1 receptor-associated kinase 1; experiment: Protac activity at IRAK1/VHL E3 ligase in HEK293T cells assessed as induction of IRAK1 degradation at 1 uM measured after 24 hrsin presence of proteasome inhibitior MG-132 by Western blot analysis; assay type: cell-based; settings: time 24.0 hrs
Target sequence in this assay (P40337 whole entry, looked up): as the sequence (P40337 whole entry) above
Target sequence in this assay (P51617 whole entry, looked up): as the sequence (P51617 whole entry, looked up, the tested form may be a part) above

[10] = target: T4, Interleukin-1 receptor-associated kinase 4 (Homo sapiens, UniProt Q9NWZ3); experiment: as §1, with “full length” for “truncated”, “IRAK4” for “IRAK1 (194 to 712 residues)”
T4 sequence (Q9NWZ3 whole entry): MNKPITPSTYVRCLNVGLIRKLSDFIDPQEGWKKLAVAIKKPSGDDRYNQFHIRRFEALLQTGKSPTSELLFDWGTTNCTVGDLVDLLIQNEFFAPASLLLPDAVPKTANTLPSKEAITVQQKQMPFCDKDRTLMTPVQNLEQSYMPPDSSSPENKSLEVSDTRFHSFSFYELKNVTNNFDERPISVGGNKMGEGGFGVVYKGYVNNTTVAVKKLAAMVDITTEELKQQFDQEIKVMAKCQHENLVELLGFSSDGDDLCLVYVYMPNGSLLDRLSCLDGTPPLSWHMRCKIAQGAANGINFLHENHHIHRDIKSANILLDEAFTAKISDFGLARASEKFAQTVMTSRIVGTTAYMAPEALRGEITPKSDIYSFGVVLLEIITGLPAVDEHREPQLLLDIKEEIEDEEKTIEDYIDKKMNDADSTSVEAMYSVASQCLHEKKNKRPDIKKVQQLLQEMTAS

[11] = target: von Hippel-Lindau disease tumor suppressor (Homo sapiens, UniProt P40337); experiment: Displacement of 5-FAM-labelled DEALA-HypYIPMDDDFQLRSF peptide from VHL (unknown origin) by fluorescence polarization assay
Sequence of von Hippel-Lindau disease tumor suppressor (P40337 whole entry): as the sequence (P40337 whole entry) above

- inhibition [1]: Active
- inhibition [2]: Active
- inhibition [3]: Active
- DC50 [4]: 0.0033 µM
- inhibition [5]: inactive
- DC50 [6]: 0.02 µM
- inhibition [7]: Active
- IC50 [8]: 0.072 µM
- Activity [9]: inactive
- IC50 [10]: 0.443 µM
- IC50 [11]: 1.07 µM
SMILES: COc1cc(N2CCC(OCC(=O)N[C@H](C(=O)N3C[C@H](O)C[C@H]3C(=O)N[C@@H](C)c3ccc(-c4scnc4C)cc3)C(C)(C)C)CC2)ccc1NC(=O)c1cccc(-c2ccn[nH]2)n1
- Activity (OCI-Ly10): 170 nM
